Experimental data taken from US8889727B2, “Topical antifungal agent” (Meiji Seika Pharma Co., Ltd., priority 2011, dated 2014).
In brackets after ≈: the same amount, converted by molar mass.

Columns and labels:
[1] = tested on: T. mentagrophytes ATCC18748; assay: Measurement of antifungal activity (MIC, WST8 growth inhibition); type: cell-based; settings: Trichophyton mentagrophytes, 72 h; 80% growth inhibition concentration; T. mentagrophytes ATCC18748, RPMI1640/MOPS, 28° C., 3 days
Procedure: (§1) The compounds for evaluation were dissolved in dimethyl sulfoxide (DMSO) and used. As the test medium, RPMI1640 medium containing 0.165 M 3-morpholino propane sulfonic acid (MOPS) was used. As the test strain, T. mentagrophytes ATCC18748 or T. rubrum ATCC10218 was used. 100 μL of the test strain each at a concentration of 1×10^4 conidia/mL was dispensed, mixed with compounds for evaluation on 96 well half area plate so that the concentration of DMSO becomes 1%, and cultured at 28° C. for 3 days (for T. mentagrophytes) or for 4 days (for T. rubrum). Then, 5 μL of Cell Counting Kit8 (WST8) was added and the absorbances at 450 nm and 595 nm was measured as background. Subsequently, they were incubated at 28° C. for 5 hours (for T. mentagrophytes) or overnight (for T. rubrum) to color, and again the absorbances at 450 nm and 595 nm was measured, and then calculated the growth inhibition percentages using the differences from the background, and 80% growth inhibition concentration was regarded as MIC (μg/ml). Measurement of antifungal activity was conducted by the following method. Compounds for evaluation were dissolved in dimethyl sulfoxide (DMSO) and used. As the test medium, RPMI1640 medium containing 0.165 M 3-morpholinopropane sulfonic acid (MOPS) was used. As the test strain, T. mentagrophytes ATCC18748 or T. rubrum ATCC10218 was used. 100 μL of the test strain was dispensed at a concentration of 1×10^4 conidia/mL, mixed with compounds for evaluation on 96 well half area plate so that the concentration of DMSO becomes 1%, and cultured at a culture temperature of 28° C. for 3 days (for T. mentagrophytes) or for 4 days (for T. rubrum). Then, 5 μL of Cell Counting Kit8 (WST8) was added and the absorbances at 450 nm and 595 nm was measured as background. Subsequently, they were incubated at 28° C. for 5 hours (for T. mentagrophytes) or overnight (for T. rubrum), and again measured the absorbances at 450 nm and 595 nm was measured, and then calculated the growth inhibition percentages using the differences from the background, and 80% growth inhibition concentration was regarded as MIC (μg/ml).

T. rubrum ATCC10218 = assay: as above; type: cell-based; settings: Trichophyton rubrum, 96 h; 80% growth inhibition concentration; T. rubrum ATCC10218, RPMI1640/MOPS, 28° C., 4 days
Procedure: as §1

| MIC [1] | MIC (T. rubrum ATCC10218) | Compound | inhibition of growth at 32 µg/mL [1] |
| --- | --- | --- | --- |
| 2 to 8 µg/mL (≈ 10.6 to 42.5 µM) | 4 to 16 µg/mL (≈ 21.3 to 85 µM) | Cc1cc(C)n(-c2ccccc2O)n1 [Example 1, 2-(3,5-Dimethyl-1H-pyrazol-1-yl)phenol] | – |
| 16 to 32 µg/mL (≈ 66.1 to 132 µM) | 32 to 64 µg/mL (≈ 132 to 264 µM) | Cc1cc(C(F)(F)F)nn1-c1ccccc1O [Example 5, 2-(5-Methyl-3-trifluoromethyl-1H-pyrazol-1-yl)phenol] | – |
| 16 to 32 µg/mL (≈ 54 to 108 µM) | > 64 µg/mL | Oc1ccccc1-n1nc(C(F)(F)F)cc1C(F)(F)F [Example 6, 2-(3,5-Bistrifluoromethyl-1H-pyrazol-1-yl)phenol] | – |
| 16 to 32 µg/mL (≈ 91.8 to 184 µM) | > 64 µg/mL | Cc1ccn(-c2ccccc2O)n1 [Example 7, 2-(3-Methyl-1H-pyrazol-1-yl)phenol] | – |
| 16 to 32 µg/mL (≈ 91.8 to 184 µM) | > 64 µg/mL | Cc1ccnn1-c1ccccc1O [Example 8, 2-(5-Methyl-1H-pyrazol-1-yl)phenol] | – |
| ≤ 1 µg/mL | ≤ 2 µg/mL | Cc1nn(-c2ccccc2O)c(C)c1C [Example 9, 2-(3,4,5-Trimethyl-1H-pyrazol-1-yl)phenol] | – |
| – | > 64 µg/mL | CC(C)(C)c1cc(N)n(-c2ccccc2O)n1 [Example 10, 2-(5-Amino-3-tert-butyl-1H-pyrazol-1-yl)phenol] | 50 to 80% |
| 16 to 32 µg/mL (≈ 71.9 to 144 µM) | 32 to 64 µg/mL (≈ 144 to 287 µM) | Cc1cc(C)n(-c2cc(Cl)ccc2O)n1 [Example 11, 4-Chloro-2-(3,5-dimethyl-1H-pyrazol-1-yl)phenol] | – |
| 16 to 32 µg/mL (≈ 71.9 to 144 µM) | > 64 µg/mL | Cc1cc(C)n(-c2cccc(Cl)c2O)n1 [Example 12, 2-Chloro-6-(3,5-dimethyl-1H-pyrazol-1-yl)phenol] | – |
| ≤ 1 µg/mL | 4 to 16 µg/mL (≈ 18 to 71.9 µM) | Cc1nn(-c2ccccc2O)c(C)c1Cl [Example 13, 2-(4-Chloro-3,5-dimethyl-1H-pyrazol-1-yl)phenol] | – |
| 2 to 8 µg/mL (≈ 9.25 to 37 µM) | 4 to 16 µg/mL (≈ 18.5 to 74 µM) | CCc1cc(CC)n(-c2ccccc2O)n1 [Example 14, 2-(3,5-Diethyl-1H-pyrazol-1-yl)phenol] | – |
| 16 to 32 µg/mL (≈ 78.3 to 157 µM) | 16 to 32 µg/mL (≈ 78.3 to 157 µM) | Cc1cc(C)n(-c2cccc(O)c2O)n1 [Example 15, 3-(3,5-Dimethyl-1H-pyrazol-1-yl)benzene-1,2-diol] | – |
| 16 to 32 µg/mL (≈ 78.3 to 157 µM) | > 64 µg/mL | Cc1cc(C)n(-c2cc(O)ccc2O)n1 [Example 16, 2-(3,5-Dimethyl-1H-pyrazol-1-yl)benzene-1,4-diol] | – |
| ≤ 1 µg/mL | ≤ 2 µg/mL | CCc1c(C)nn(-c2ccccc2O)c1C [Example 17, 2-(4-Ethyl-3,5-dimethyl-1H-pyrazol-1-yl)phenol] | – |
| 2 to 8 µg/mL (≈ 9.08 to 36.3 µM) | 4 to 16 µg/mL (≈ 18.2 to 72.6 µM) | Cc1nn(-c2ccc(F)cc2O)c(C)c1C [Example 18, 5-Fluoro-2-(3,4,5-trimethyl-1H-pyrazol-1-yl)phenol] | – |
| 16 to 32 µg/mL (≈ 67 to 134 µM) | 16 to 32 µg/mL (≈ 67 to 134 µM) | Cc1nn(-c2cc(O)ccc2O)c(C)c1Cl [Example 19, 2-(4-Chloro-3,5-dimethyl-1H-pyrazol-1-yl)benzene-1,4-diol] | – |
| 16 to 32 µg/mL (≈ 72.6 to 145 µM) | 32 to 64 µg/mL (≈ 145 to 291 µM) | Cc1nn(-c2cc(F)ccc2O)c(C)c1C [Example 20, 4-Fluoro-2-(3,4,5-trimethyl-1H-pyrazol-1-yl)phenol] | – |
| ≤ 1 µg/mL | 4 to 16 µg/mL (≈ 16.6 to 66.5 µM) | Cc1nn(-c2ccc(F)cc2O)c(C)c1Cl [Example 21, 2-(4-Chloro-3,5-dimethyl-1H-pyrazol-1-yl)-5-fluoro phenol] | – |
| 16 to 32 µg/mL (≈ 61.5 to 123 µM) | 32 to 64 µg/mL (≈ 123 to 246 µM) | CCOC(=O)c1c(C)nn(-c2ccccc2O)c1C [Example 22, Ethyl 1-(2-hydroxyphenyl)-3,5-dimethyl-1H-pyrazol-4-carboxylate] | – |
| 16 to 32 µg/mL (≈ 58.3 to 117 µM) | 32 to 64 µg/mL (≈ 117 to 233 µM) | COC(=O)CCc1c(C)nn(-c2ccccc2O)c1C [Example 23, Methyl 3-(1-(2-hydroxyphenyl)-3,5-dimethyl-1H-pyrazol-4-yl)propanoate] | – |
| ≤ 1 µg/mL | 16 to 32 µg/mL (≈ 65.5 to 131 µM) | CCCCc1c(C)nn(-c2ccccc2O)c1C [Example 24, 2-(4-Butyl-3,5-dimethyl-1H-pyrazol-1-yl)phenol] | – |
| 2 to 8 µg/mL (≈ 9.7 to 38.8 µM) | 4 to 16 µg/mL (≈ 19.4 to 77.6 µM) | Cc1cc(C)n(-c2ccc(F)cc2O)n1 [Example 25, 2-(3,5-Dimethyl-1H-pyrazol-1-yl)-5-fluorophenol] | – |
| ≤ 1 µg/mL | ≤ 2 µg/mL | Cc1cc(C)n(-c2ccc(Cl)cc2O)n1 [Example 26, 5-Chloro-2-(3,5-dimethyl-1H-pyrazol-1-yl)phenol] | – |

| MIC [1] | MIC (T. rubrum ATCC10218) | Compound | inhibition of growth at 32 µg/mL [1] |
| --- | --- | --- | --- |
| 2 to 8 µg/mL (≈ 8.58 to 34.3 µM) | 16 to 32 µg/mL (≈ 68.6 to 137 µM) | Cc1cc(C)n(-c2ccc([N+](=O)[O-])cc2O)n1 [Example 28, 2-(3,5-Dimethyl-1H-pyrazol-1-yl)-5-nitrophenol] | – |
| ≤ 1 µg/mL | ≤ 2 µg/mL | Cc1nn(-c2ccc(Cl)cc2O)c(C)c1C [Example 30, 5-Chloro-2-(3,4,5-trimethyl-1H-pyrazol-1-yl)phenol] | – |
| 2 to 8 µg/mL (≈ 9.84 to 39.4 µM) | 4 to 16 µg/mL (≈ 19.7 to 78.7 µM) | Cc1cc(C)n(-c2ccc(N)cc2O)n1 [Example 31, 5-Amino-2-(3,5-dimethyl-1H-pyrazol-1-yl)phenol] | – |
| 2 to 8 µg/mL (≈ 8.09 to 32.4 µM) | 4 to 16 µg/mL (≈ 16.2 to 64.7 µM) | Cc1nn(-c2ccc([N+](=O)[O-])cc2O)c(C)c1C [Example 32, 5-Nitro-2-(3,4,5-trimethyl-1H-pyrazol-1-yl)phenol] | – |
| 2 to 8 µg/mL (≈ 9.79 to 39.2 µM) | ≤ 2 µg/mL | Cc1cc(C)n(-c2ccc(O)cc2O)n1 [Example 33, 4-(3,5-Dimethyl-1H-pyrazol-1-yl)benzene-1,3-diol] | – |
| 2 to 8 µg/mL (≈ 9.21 to 36.8 µM) | 4 to 16 µg/mL (≈ 18.4 to 73.6 µM) | Cc1nn(-c2ccc(N)cc2O)c(C)c1C [Example 34, 5-Amino-2-(3,4,5-trimethyl-1H-pyrazol-1-yl)phenol] | – |
| 16 to 32 µg/mL (≈ 65 to 130 µM) | 16 to 32 µg/mL (≈ 65 to 130 µM) | COC(=O)c1ccc(-n2nc(C)cc2C)c(O)c1 [Example 35, Methyl 4-(3,5-dimethyl-1H-pyrazol-1-yl)-3-hydroxybenzene carboxylate] | – |
| – | 32 to 64 µg/mL (≈ 157 to 315 µM) | Cc1cc(C)n(-c2c(N)cccc2O)n1 [Example 36, 3-Amino-2-(3,5-dimethyl-1H-pyrazol-1-yl)phenol] | < 50% |
| 2 to 8 µg/mL (≈ 8.61 to 34.4 µM) | 4 to 16 µg/mL (≈ 17.2 to 68.9 µM) | Cc1cc(C)n(-c2ccc(C(=O)O)cc2O)n1 [Example 37, 4-(3,5-Dimethyl-1H-pyrazol-1-yl)-3-hydroxybenzene carboxylic acid] | – |
| 16 to 32 µg/mL (≈ 61.7 to 123 µM) | 4 to 16 µg/mL (≈ 15.4 to 61.7 µM) | Cc1cc(C)n(-c2ccc(C(=O)N(C)C)cc2O)n1 [Example 38, 4-(3,5-Dimethyl-1H-pyrazol-1-yl)-3-hydroxy-N,N-dimethylbenzamide] | – |
| – | 32 to 64 µg/mL (≈ 130 to 260 µM) | Cc1nn(-c2ccc(C(=O)O)cc2O)c(C)c1C [Example 40, 3-Hydroxy-4-(3,4,5-trimethyl-1H-pyrazol-1-yl)benzene carboxylic acid] | < 50% |
| – | 32 to 64 µg/mL (≈ 130 to 261 µM) | Cc1nn(-c2ccc(C(N)=O)cc2O)c(C)c1C [Example 41, 3-Hydroxy-4-(3,4,5-trimethyl-1H-pyrazol-1-yl)benzamide] | 50 to 80% |
| 16 to 32 µg/mL (≈ 60.2 to 120 µM) | 32 to 64 µg/mL (≈ 120 to 241 µM) | Cc1nn(-c2ccc(C(N)=O)cc2O)c(C)c1Cl [Example 42, 4-(4-Chloro-3,5-dimethyl-1H-pyrazol-1-yl)-3-hydroxybenzamide] | – |
| – | 32 to 64 µg/mL (≈ 157 to 313 µM) | Cc1cc(C)n(-c2c(O)cccc2O)n1 [Example 43, 2-(3,5-Dimethyl-1H-pyrazol-1-yl)benzene-1,3-diol] | < 50% |
| ≤ 1 µg/mL | ≤ 2 µg/mL | Cc1ccc(-n2nc(C)cc2C)c(O)c1 [Example 44, 2-(3,5-Dimethyl-1H-pyrazol-1-yl)-5-methylphenol] | – |
| ≤ 1 µg/mL | ≤ 2 µg/mL | COc1ccc(-n2nc(C)cc2C)c(O)c1 [Example 45, 2-(3,5-Dimethyl-1H-pyrazol-1-yl)-5-methoxyphenol] | – |
| – | 32 to 64 µg/mL (≈ 158 to 316 µM) | Cc1cc(C)n(-c2c(C)cccc2O)n1 [Example 46, 2-(3,5-Dimethyl-1H-pyrazol-1-yl)-3-methylphenol] | < 50% |
| 2 to 8 µg/mL (≈ 9.16 to 36.7 µM) | 4 to 16 µg/mL (≈ 18.3 to 73.3 µM) | Cc1cc(C)n(-c2ccc(CO)cc2O)n1 [Example 47, 2-(3,5-Dimethyl-1H-pyrazol-1-yl)-5-hydroxymethylphenol] | – |
| 2 to 8 µg/mL (≈ 9.21 to 36.8 µM) | 4 to 16 µg/mL (≈ 18.4 to 73.6 µM) | CNc1ccc(-n2nc(C)cc2C)c(O)c1 [Example 48, 2-(3,5-Dimethyl-1H-pyrazol-1-yl)-5-methylaminophenol] | – |
| – | 32 to 64 µg/mL (≈ 158 to 316 µM) | Cc1ccc(O)c(-n2nc(C)cc2C)c1 [Example 49, 2-(3,5-Dimethyl-1H-pyrazol-1-yl)-4-methylphenol] | < 50% |
| 2 to 8 µg/mL (≈ 7.81 to 31.2 µM) | 4 to 16 µg/mL (≈ 15.6 to 62.4 µM) | Cc1cc(C)n(-c2ccc(C(F)(F)F)cc2O)n1 [Example 50, 2-(3,5-Dimethyl-1H-pyrazol-1-yl)-5-trifluoromethylphenol] | – |
| – | 32 to 64 µg/mL (≈ 158 to 316 µM) | Cc1cc(C)n(-c2cccc(C)c2O)n1 [Example 51, 2-(3,5-dimethyl-1H-pyrazol-1-yl)-6-methylphenol] | < 50% |
